These results are taken from patent publication US20080051429A1, “USE OF 4-AMINO-PIPERIDINES FOR TREATING SLEEP DISORDERS” (priority 2006, published 2008).

Data set [1] deals with T1, 5HT1A (Homo sapiens, UniProt P08908).
T1 sequence (P08908 1-422): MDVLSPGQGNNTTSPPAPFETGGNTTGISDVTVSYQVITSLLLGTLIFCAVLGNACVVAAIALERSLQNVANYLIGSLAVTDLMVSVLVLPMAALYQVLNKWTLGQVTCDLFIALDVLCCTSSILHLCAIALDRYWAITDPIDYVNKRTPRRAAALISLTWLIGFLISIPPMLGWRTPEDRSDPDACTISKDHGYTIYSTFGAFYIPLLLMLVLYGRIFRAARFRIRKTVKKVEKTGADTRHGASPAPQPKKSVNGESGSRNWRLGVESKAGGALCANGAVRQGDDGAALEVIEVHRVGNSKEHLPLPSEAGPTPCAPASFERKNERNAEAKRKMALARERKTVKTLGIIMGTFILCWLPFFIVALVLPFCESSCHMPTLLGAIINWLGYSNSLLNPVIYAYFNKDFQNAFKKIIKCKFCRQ
In words: R-SAT broad profiling. Type of data set: cell-based. The following applies: agonist; read-out: pEC50 or pIC50 (converted). Set-up: expressed in transfected cells; host or cells: NIH3T3. The method, then:
(§1) The functional receptor assay, Receptor Selection and Amplification Technology (R-SAT), was used (with minor modifications from that previously described U.S. Pat. No. 5,707,798) to screen compounds for efficacy at the 5-HT2A receptor. Briefly, NIH3T3 cells were grown in 96 well tissue culture plates to 70-80% confluence. Cells were transfected for 12-16 hours with plasmid DNAs using superfect (Qiagen Inc.) as per manufacture's protocols. R-SAT's were generally performed with 50 ng/well of receptor and 20 ng/well of Beta-galactosidase plasmid DNA. All receptor and G-protein constructs used were in the pSI mammalian expression vector (Promega Inc) as described in U.S. Pat. No. 5,707,798. The 5HT2A receptor gene was amplified by nested PCR from brain cDNA using the oligodeoxynucleotides based on the published sequence (see Saltzman et. al. Biochem. Biophys. Res. Comm. 181:1469-78 (1991)). Large-scale transfections, cells were transfected for 12-16 hours, then trypsinized and frozen in DMSO. Frozen cells were later thawed, plated at 10,000-40,000 cells per well of a 96 well plate that contained drug. With both methods, cells were then grown in a humidified atmosphere with 5% ambient CO2 for five days. Media was then removed from the plates and marker gene activity was measured by the addition of the beta-galactosidase substrate ONPG (in PBS with 5% NP-40). The resulting colorimetric reaction was measured in a spectrophotometric plate reader (Titertek Inc.)at […]. All data were analyzed using the computer program XLFit (IDBSm). Efficacy is the percent maximal repression compared to repression by a control compound (ritanserin in the case of 5HT2A). pIC50 is the negative of the log(IC50), where IC50 is the calculated concentration in Molar that produces 50% maximal repression.
(§2) The R-SAT assay (described above in example 289) was used to investigate the selectivity of 4-(4-Fluoro-benzyl)-3-(4-isobutoxy-benzyl)-8-methyl-1-oxa-3,8-diaza-spiro[4.5]decan-2-one.

Data set [2] addresses 5HT1D (Homo sapiens, UniProt P28221). As to the kind of experiment: R-SAT broad profiling. Type of data set: cell-based. Set-up: expressed in transfected cells; host or cells: NIH3T3. As to conditions: read-out: pEC50 or pIC50 (converted). The method, then:
as §1, §2

Data set [3] deals with T2, 5HT1F (Homo sapiens, UniProt P30939).
T2 sequence (P30939 1-366): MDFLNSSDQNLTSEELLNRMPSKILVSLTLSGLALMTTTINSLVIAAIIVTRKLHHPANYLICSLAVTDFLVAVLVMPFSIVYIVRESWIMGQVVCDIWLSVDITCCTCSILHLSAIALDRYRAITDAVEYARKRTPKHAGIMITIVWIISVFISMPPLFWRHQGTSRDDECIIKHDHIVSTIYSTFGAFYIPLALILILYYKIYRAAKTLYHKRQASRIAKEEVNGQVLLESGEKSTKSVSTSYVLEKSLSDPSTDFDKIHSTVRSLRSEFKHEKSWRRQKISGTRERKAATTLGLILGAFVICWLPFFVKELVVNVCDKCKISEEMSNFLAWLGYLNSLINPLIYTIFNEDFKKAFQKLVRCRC
In words: R-SAT broad profiling. Type of data set: cell-based. Also on record: expressed in transfected cells; host or cells: NIH3T3. As to conditions: read-out: pEC50 or pIC50 (converted). The method, then:
as §1, §2

Data set [4] has as its target T3, 5HT2C (Homo sapiens, UniProt P28335).
T3 sequence (P28335 33-458): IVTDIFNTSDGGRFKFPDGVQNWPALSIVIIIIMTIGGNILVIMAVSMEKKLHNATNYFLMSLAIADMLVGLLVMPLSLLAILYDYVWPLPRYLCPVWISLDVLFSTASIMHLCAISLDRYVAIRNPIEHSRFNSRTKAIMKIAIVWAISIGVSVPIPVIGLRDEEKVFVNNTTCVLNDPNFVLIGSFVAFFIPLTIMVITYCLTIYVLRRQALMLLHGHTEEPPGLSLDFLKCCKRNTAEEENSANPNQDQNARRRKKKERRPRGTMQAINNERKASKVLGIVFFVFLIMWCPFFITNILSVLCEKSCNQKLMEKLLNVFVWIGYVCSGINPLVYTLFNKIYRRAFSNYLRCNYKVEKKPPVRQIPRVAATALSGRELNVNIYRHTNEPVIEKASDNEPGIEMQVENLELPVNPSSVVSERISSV
In words: R-SAT broad profiling. Also on record: expressed in transfected cells; host or cells: NIH3T3. Type of data set: cell-based. The method, then:
as §1, §2

Data set [5] concerns the target D2 (Homo sapiens, UniProt P14416). In words: R-SAT broad profiling. Type of data set: cell-based. Also on record: expressed in transfected cells; host or cells: NIH3T3. As to conditions: read-out: pEC50 or pIC50 (converted). Here is the method: as §1, §2
The test system of data set [6] is healthy volunteers. As to the kind of experiment: Clinical safety evaluation. Type of data set: in vivo, human. The method, then:
Safety: 3-positional vital signs, ECGs, body temperature, and respiratory rates as well as blood chemistries, hematology, and urinalysis served as safety measures. Safety measures were assessed at screening, baseline (Day −1), Day 1, Day 2, Day 13, and Day 14. Any observed or reported adverse events were recorded. Blood samples were taken on Day −1 (baseline) and on Day 14 (steady state). Two weeks after the termination of treatment administration (Day 28), an end-of-study visit was conducted, and included a clinical safety evaluation.

Chain of D2 (P14416 whole entry): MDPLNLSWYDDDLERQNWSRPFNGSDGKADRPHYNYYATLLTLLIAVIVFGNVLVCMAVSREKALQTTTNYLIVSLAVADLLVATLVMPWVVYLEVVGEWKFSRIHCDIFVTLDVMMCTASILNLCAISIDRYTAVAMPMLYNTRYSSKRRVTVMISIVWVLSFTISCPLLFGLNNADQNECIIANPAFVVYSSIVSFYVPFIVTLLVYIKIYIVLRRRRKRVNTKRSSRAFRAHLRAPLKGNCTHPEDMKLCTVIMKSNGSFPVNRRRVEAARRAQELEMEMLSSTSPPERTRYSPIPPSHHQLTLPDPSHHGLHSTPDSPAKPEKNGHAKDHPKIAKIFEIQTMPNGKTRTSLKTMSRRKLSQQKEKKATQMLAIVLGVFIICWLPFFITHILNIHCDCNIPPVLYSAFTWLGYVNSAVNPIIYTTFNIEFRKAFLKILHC
Chain of 5HT1D (P28221 whole entry, species assumed): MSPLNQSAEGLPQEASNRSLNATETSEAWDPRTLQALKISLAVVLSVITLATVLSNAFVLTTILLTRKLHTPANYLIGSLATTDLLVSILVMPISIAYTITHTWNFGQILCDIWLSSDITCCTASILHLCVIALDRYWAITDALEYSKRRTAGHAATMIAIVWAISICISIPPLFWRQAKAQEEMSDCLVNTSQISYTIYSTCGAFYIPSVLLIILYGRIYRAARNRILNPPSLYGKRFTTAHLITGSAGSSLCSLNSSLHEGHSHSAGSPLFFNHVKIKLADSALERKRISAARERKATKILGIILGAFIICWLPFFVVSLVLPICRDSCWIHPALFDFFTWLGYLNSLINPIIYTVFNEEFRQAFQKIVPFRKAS

`CC(C)COc1ccc(CN2C(=O)OC3(CCN(C)CC3)C2Cc2ccc(F)cc2)cc1.Cl` (racemic) [Example 69NLS75, 4-(4-Fluorobenzyl)-3-(4-isobutoxybenzyl)-8-methyl-1-oxa-3,8-diazaspiro[4.5]decan-2-one, hydrochloride]: the EC50 in data set [1] was more than 3.16 µM; in data set [2] (agonist), more than 3.16 µM; in data set [3] (agonist), more than 3.16 µM; in data set [4] (agonist, read-out: pEC50 or pIC50 (converted)), more than 3.16 µM; in data set [5] (agonist), more than 3.16 µM. For the same compound, the IC50 in data set [2] (antagonist) was more than 562 nM; in data set [3] (antagonist) it was more than 3.16 µM; in data set [5] (antagonist), more than 3.16 µM. Further, in data set [4] (inverse), the efficacy in brackets was found to be 77%.
As to `CC(C)COc1ccc(CNC(=O)N(Cc2ccc(F)cc2)C2CCN(C)CC2)cc1` [N-(1-methylpiperidin-4-yl)-N-(4-fluorophenylmethyl)-N′-(4-(2-methylpropyloxy)phenylmethyl)carbamide], in data set [6] (1 to 20 mg once daily, 14 days), the safety and tolerability result was “safe and well tolerated”; the serious adverse events result is “no serious adverse events”. In data set [6] (comparable across placebo and treated groups), the “nature of adverse events” value is “mild to moderate”.
